Entries after “also recorded” stand apart in the source; their conditions may differ.
Tests used:
[1] = reported in the literature; cited from earlier work
[2] = Biodistribution in NMRI mice (gamma counter); assay type: in vivo; conditions: 0.178 MBq injected, decay corrected
Experimental: For each time point 3 mice have been used. The mice were injected each with 0.178 MBq[^18F]compound 13. After the respective time points the mice were sacrificed, the organs taken out and measured in a gamma counter. The results were decay corrected.

[3] = PET brain uptake (time activity curves, SUV) in cynomolgus monkey; conditions: same monkey
[4] = Plasma radioactivity and plasma metabolites in cynomolgus monkey; assay type: in vivo
Description: Plasma radioactivity profiles have been monitored over time. […] In addition, metabolites occurring in plasma over time have been monitored (FIGS. 8 and 9) for both ligands.

MAO B = biological target: T1, MAO B (Homo sapiens, UniProt P27338); assay: Autoradiography of [^18F]compound 13 on human brain sections (Alzheimer's disease), blocking with MAO B inhibitors; assay type: binding
T1 construct: investigated on human brain sections from patients with Alzheimer's disease and normal controls; from tissue; host or cells: human brain sections (Alzheimer's disease patients and normal controls)
T1 sequence (P27338 1-520): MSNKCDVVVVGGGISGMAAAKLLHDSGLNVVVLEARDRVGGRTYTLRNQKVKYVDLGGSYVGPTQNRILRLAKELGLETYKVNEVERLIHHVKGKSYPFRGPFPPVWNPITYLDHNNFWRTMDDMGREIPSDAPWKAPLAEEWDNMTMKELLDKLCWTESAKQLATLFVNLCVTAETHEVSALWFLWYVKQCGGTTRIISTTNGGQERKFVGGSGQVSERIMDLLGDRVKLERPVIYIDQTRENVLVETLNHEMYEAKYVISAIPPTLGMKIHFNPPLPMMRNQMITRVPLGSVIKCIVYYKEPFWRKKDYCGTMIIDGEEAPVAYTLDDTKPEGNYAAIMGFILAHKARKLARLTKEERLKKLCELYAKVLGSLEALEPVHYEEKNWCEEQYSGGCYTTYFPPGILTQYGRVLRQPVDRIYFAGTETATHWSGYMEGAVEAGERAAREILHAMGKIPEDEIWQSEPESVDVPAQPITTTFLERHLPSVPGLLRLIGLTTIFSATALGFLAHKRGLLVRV
Experimental: Thereafter, the slides were removed and brought to room temperature. […] The sections were dipped two times into ice cold distilled water, dried at room temperature and exposed to PhosphorImanger plates (FUJI BAS 5000) over night. For detection of the specificity of the signals an excess (10 μM) of Deprenyl, Pargylin (both for MAO B) and Clorgyline (for MAO A), respectively, was used. After exposure, the sections were immunohistochemically stained using a standard protocol with an anti-GFAP antibody to detect reactive astrocytes. Amyloid B plaques were detected with BAY 949172 (Rowe CC et al. Lancet Neutol 2008; 7: 129-135) using the binding protocol as described above.

Structure (SMILES)	degradation to metabolite [1]	brain uptake of radioactivity ([2]; 2 min p.i.) [% ID/g]	radioactivity in brain ([2]; 30 min p.i.) [% ID/g]	radioactivity in brain ([2]; after 4 hours) [% ID/g]	uptake and enrichment in specific regions, e.g. striatum, higher than [^11C]Deprenyl [3]	metabolic stability compared to [^11C]Deprenyl (and compound 5) ([4]; plasma metabolites)	generation of metabolite b in plasma (level) ([4]; plasma over time)	relation of autoradiographic signal density and intensity to amyloid β pathology (MAO B; Alzheimer's disease brain slices, amyloid detected with BAY 949172)	autoradiographic signal blocked with deprenyl (MAO B; human Alzheimer's disease brain slices, 10 Bq/μl tracer, excess (10 μM) of Deprenyl)	autoradiographic signal blocked with pargylin (MAO B; human Alzheimer's disease brain slices, 10 Bq/μl tracer, excess (10 μM) of Pargylin)	relation of autoradiographic signal to reactive astrocytes (GFAP immunoreactivity) (MAO B; human brain slice from a patient with AD, anti-GFAP staining)
C#CCN(C)CCCCCC[18F] [compound 5]	degraded quickly towards a polar [^18F]-labelled metabolite	–	–	–	–	–	–	–	–	–	–
C#CCN(C)[C@H](C[18F])Cc1ccccc1 [[^18F]compound 13, N-[(2S)-1-(^18F)fluoro-3-phenylpropan-2-yl]-N-methylprop-2-yn-1-amine]	–	7.5 ± 0.04	2.10±0.33	1.34±0.26	about 10%	improved metabolic stability; also recorded: more stable	around 10%	corresponds with the amyloid β plaque load	could be blocked; also recorded: completely blocked	could be blocked	correspondence of the autoradiographic signal to reactive astrocytes is demonstrated

Source: US20100233086A1, “COMPOUNDS FOR USE IN IMAGING, DIAGNOSING AND/OR TREATMENT OF DISEASES OF THE CENTRAL NERVOUS SYSTEM OR OF TUMORS” (priority 2007, published 2010)
